Measured values taken from the SangsterLogP compilation.

assay: method code SF-AS, from DOI: 10.1002/ardp.19903230114, PMID: 2334269; conditions: pH 7.4

| SMILES | logD |
| --- | --- |
| CN1CC(O)(c2ccccc2)OC2CCCCC21 (configuration not stated) | 1.81 |
| CCCCCOC1(c2ccccc2)CN(C)C2CCCCC2O1 (configuration not stated) | 2.05 |
| CCCOC1(c2ccccc2)CN2CCCCC2CO1 (configuration not stated) | 1.92 |
| CCCCN1CCOC(OCC)(c2ccccc2)C1 (configuration not stated) | 2 |
| CCCCOC1(c2ccccc2)CN2CCCCC2CO1 (configuration not stated) | 1.94 |
| CCOC1(c2ccccc2)CN2CCCCC2CO1 (configuration not stated) | 1.87 |
| CC(C)COC1(c2ccccc2)CN2CCCCC2CO1 (configuration not stated) | 1.95 |
| CCCCOC1(c2ccccc2)CN(CCCC)CCO1 (configuration not stated) | 2.13 |
| c1ccc(COC2(c3ccccc3)CN3CCCCC3CO2)cc1 (configuration not stated) | 1.95 |
| OC1(c2ccccc2)CN2CCCCC2CO1 (configuration not stated) | 1.77 |
| CCCCN1CCOC(OCCC)(c2ccccc2)C1 (configuration not stated) | 2.03 |
| CCCOC1(c2ccccc2)CN(C)C2CCCCC2O1 (configuration not stated) | 1.91 |
